Data taken from ChEMBL document CHEMBL3885861, “Open TG-GATES”.

Organism: Rattus norvegicus
Assay: Open TG-GATES - Regimen: Daily Repeat
Format: toxicity, organism-based, Sprague-Dawley
Parameters: regimen Daily Repeat, gender Male, age 6 weeks
Details: in vivo, po, 0 mg/kg, route gavage, dose level Control; for APTT / Bas / Eos / Fbg / Hb / Ht / Lym / MCH / MCHC / MCV / Mono / Neu / PT / Plat / RBC / Ret / WBC: tissue Blood; for KIDNEY_L / KIDNEY_R / KIDNEY_TOTAL: tissue Kidney; for LIVER: tissue Liver; for A/G / ALP / ALT / AST / BUN / CRE / Ca / Cl / DBIL / GLC / IP / K / LDH / Na / PL / RALB / TBIL / TC / TG / TP / gamma-GTP: tissue Plasma

## CN1C(=O)OC(C)(C)C1=O [TRIMETHADIONE]
72 h, time 3 day
  TERMINAL_BW: 243.9 g
  APTT: 17 s
  Bas: 0%
  Eos: 0.8%
  Fbg: 265 mg/dL
  Hb: 13.7 g/dL
  Ht: 41%
  Lym: 79.8%
  MCH: 21.4 pg
  MCHC: 33.4%
  MCV: 64.2 fL
  Mono: 2.6%
  Neu: 16.4%
  PT: 13.3 s
  Plat: 131 x10_4/uL
  RBC: 639.2 x10_4/ul
  Ret: 7.2%
  WBC: 85.5 x10_2/uL
  KIDNEY_L: 1 g
  KIDNEY_R: 1 g
  KIDNEY_TOTAL: 2 g
  LIVER: 11.2 g
  A/G: 0.8
  ALP: 1967.6 IU/L
  ALT: 47.4 IU/L
  AST: 78 IU/L
  BUN: 15 mg/dL
  CRE: 0.2 mg/dL
  Ca: 11.2 mg/dL
  Cl: 106 meq/L
  DBIL: 0.006 mg/dL
  GLC: 180.6 mg/dL
  IP: 7 mg/dL
  K: 4.6 meq/L
  LDH: 109.4 IU/L
  Na: 141.6 meq/L
  PL: 166.6 mg/dL
  RALB: 2.6 g/dL
  TBIL: 0.05 mg/dL
  TC: 83.6 mg/dL
  TG: 141.8 mg/dL
  TP: 5.7 g/dL
  gamma-GTP: 1 IU/L
[…], time 7 day
  TERMINAL_BW: 282.3 g
  APTT: 17.7 s
  Bas: 0.6%
  Eos: 1%
  Fbg: 263.8 mg/dL
  Hb: 13.8 g/dL
  Ht: 41%
  Lym: 79.4%
  MCH: 21.4 pg
  MCHC: 33.6%
  MCV: 63.9 fL
  Mono: 2.4%
  Neu: 16.4%
  PT: 13.9 s
  Plat: 123.3 x10_4/uL
  RBC: 641.8 x10_4/ul
  Ret: 5.8%
  WBC: 89.3 x10_2/uL
  KIDNEY_L: 1.1 g
  KIDNEY_R: 1.1 g
  KIDNEY_TOTAL: 2.3 g
  LIVER: 12.5 g
  A/G: 0.8
  ALP: 1722.8 IU/L
  ALT: 38.2 IU/L
  AST: 67.4 IU/L
  BUN: 16.8 mg/dL
  CRE: 0.2 mg/dL
  Ca: 11 mg/dL
  Cl: 105.2 meq/L
  DBIL: 0.01 mg/dL
  GLC: 191.8 mg/dL
  IP: 6.9 mg/dL
  K: 4.1 meq/L
  LDH: 107.8 IU/L
  Na: 144 meq/L
  PL: 165.4 mg/dL
  RALB: 2.6 g/dL
  TBIL: 0.052 mg/dL
  TC: 85.6 mg/dL
  TG: 109 mg/dL
  TP: 5.8 g/dL
  gamma-GTP: 1 IU/L
[…], time 14 day
  TERMINAL_BW: 333.6 g
  APTT: 19.5 s
  Bas: 0.4%
  Eos: 1.2%
  Fbg: 284.6 mg/dL
  Hb: 14.9 g/dL
  Ht: 43.9%
  Lym: 77.8%
  MCH: 20.8 pg
  MCHC: 33.9%
  MCV: 61.2 fL
  Mono: 2%
  Neu: 18.6%
  PT: 13.4 s
  Plat: 127.4 x10_4/uL
  RBC: 719 x10_4/ul
  Ret: 4.4%
  WBC: 99.3 x10_2/uL
  KIDNEY_L: 1.2 g
  KIDNEY_R: 1.2 g
  KIDNEY_TOTAL: 2.4 g
  LIVER: 14.3 g
  A/G: 0.8
  ALP: 1703.8 IU/L
  ALT: 42 IU/L
  AST: 73.8 IU/L
  BUN: 17.2 mg/dL
  CRE: 0.2 mg/dL
  Ca: 10.8 mg/dL
  Cl: 107.2 meq/L
  DBIL: 0.004 mg/dL
  GLC: 208.2 mg/dL
  IP: 6.8 mg/dL
  K: 3.9 meq/L
  LDH: 98.8 IU/L
  Na: 145.6 meq/L
  PL: 164.6 mg/dL
  RALB: 2.7 g/dL
  TBIL: 0.042 mg/dL
  TC: 80.8 mg/dL
  TG: 128.8 mg/dL
  TP: 6 g/dL
  gamma-GTP: 1 IU/L
[…], time 28 day
  TERMINAL_BW: 429.2 g
  APTT: 17.5 s
  Bas: 0%
  Eos: 1.2%
  Fbg: 265.2 mg/dL
  Hb: 15.4 g/dL
  Ht: 44.4%
  Lym: 78.4%
  MCH: 19.8 pg
  MCHC: 34.8%
  MCV: 57.1 fL
  Mono: 1.6%
  Neu: 18.2%
  PT: 13.7 s
  Plat: 109.9 x10_4/uL
  RBC: 778.2 x10_4/ul
  Ret: 2.6%
  WBC: 114 x10_2/uL
  KIDNEY_L: 1.5 g
  KIDNEY_R: 1.5 g
  KIDNEY_TOTAL: 2.9 g
  LIVER: 16.8 g
  A/G: 0.8
  ALP: 1156.4 IU/L
  ALT: 35 IU/L
  AST: 62.6 IU/L
  BUN: 15 mg/dL
  CRE: 0.2 mg/dL
  Ca: 10.8 mg/dL
  Cl: 105.6 meq/L
  DBIL: 0.004 mg/dL
  GLC: 183.8 mg/dL
  IP: 6 mg/dL
  K: 4 meq/L
  LDH: 64.2 IU/L
  Na: 142.6 meq/L
  PL: 159.8 mg/dL
  RALB: 2.8 g/dL
  TBIL: 0.048 mg/dL
  TC: 73.6 mg/dL
  TG: 188.4 mg/dL
  TP: 6.3 g/dL
  gamma-GTP: 1 IU/L
